# Experimental data as given in patent US7932036B1, “Methods of determining acute myeloid leukemia response to treatment with farnesyltransferase” (Veridex, LLC, priority 2008, dated 2011).
# Key:
# [1] = tested on: relapsed or refractory AML; test: Independent set of 54 relapsed/refractory AML patients treated with tipifarnib; format: in vivo, human; conditions: for difference in overall survival between predicted responders and progressors: relapsed/refractory AML
# Description: We next performed external validation of the TSP classifier in an independent microarray dataset comprising of 54 relapsed/refractory AML patient samples. 20070048782. Importantly, a diagnostic assay that aims to predict response to a cancer therapy should have a high sensitivity (and negative predictive value) since it is important to capture as many potential responders as possible. Therefore, to define an appropriate cutoff for testing the TSP classifier we considered the need to obtain a high sensitivity of predicting responders while maintaining an acceptable level of specificity. In the training set, the level of specificity that could be achieved ranged from approximately 30% to 100% when the sensitivity was set at 100% to 80%, respectively. To ensure the classifier would predict as many responders as possible we tested a conservative cutoff that provided a specificity of approximately 60% in the training set. When this cutoff was applied to the independent testing set of relapsed/refractory AML, the RASGRP1:APTX gene classifier stratified responders with 92% NPV and 27.6% PPV (compared to 18.5% prevalence) (FIG. 3C). The associated odds ratio for being a responder was 4.38.
# In the absence of a larger independent set of newly diagnosed AML samples we also utilized 54 relapsed or refractory AML samples from our previous investigation as an independent testing set (20070048782). […] Since the prevalence of responders in that dataset was 18% this represents an improvement of overall response of approximately 50%. […] Importantly we found no association with the two-gene classifier and patient prognosis in an independent set of AML patients who were treated with chemotherapeutics. […] Further work needs to be done to clarify whether the RASGRP1:APTX expression ratio has utility for other classes of FTIs.
# [2] = tested on: previously untreated, poor-risk acute myeloid leukemia (AML); test: Phase 2 study of tipifarnib in older adults with previously untreated, poor-risk AML: clinical response and overall survival; format: in vivo, human
# Description: The current study utilized 67 bone marrow samples collected from an open label, multicenter, non-comparative phase 2 study investigating the efficacy and safety of farnesyltransferase inhibition with tipifarnib (R115777, ZARNESTRA®) in 158 older adults with previously untreated, poor-risk AML. The clinical results have been published elsewhere. Lancet et al. (2006).
# Lancet et al. (2006). Briefly, HI was defined as any bone marrow blast count less than 5% or a reduction in bone marrow blasts by at least half. Progressive disease (PD) was defined as either >50% increase in bone marrow or circulating blast % from baseline, or new appearance of circulating blasts (on at least 2 consecutive occasions). Stable disease (SD) was defined as any response not meeting CR, PR, HI, or PD criteria.
# This study examined gene expression profiles of leukemic bone marrow samples from patients enrolled in a Phase 2 clinical trial of the farnesyltransferase inhibitor tipifarnib in elderly patients with previously untreated poor-risk acute myelogenous leukemia. Lancet et al. (2006). Bone marrow from 67 patients was collected before treatment with tipifarnib and leukemic myeloid cells were enriched by Ficoll-density centrifugation (Table 1). Good quality total RNA from 13 responders (9 CR, 4 HI), 8 stable disease and 13 progressive disease patients was amplified, labeled, and hybridized to the Affymetrix U133A GeneChip. A total of 30 samples were evaluated by qPCR for validation of specific genes and 32 samples were evaluated for N-Ras mutational status.
# [3] = Kaplan Meier, RASGRP1 gene classifier, newly diagnosed AML (FIG. 1B)
# [4] = RASGRP1:APTX qPCR classifier, cut-point 0, 30 newly diagnosed AML samples
structure (smiles),measurement,setting,value
Cn1cncc1[C@@](N)(c1ccc(Cl)cc1)c1ccc2c(c1)c(-c1cccc(Cl)c1)cc(=O)n2C [tipifarnib],prevalence of responders,[1]; 54 relapsed/refractory AML patient samples,18%
same,difference in overall survival between predicted responders and progressors,[1]; RASGRP1:APTX TSP classifier,98 days
same,difference in overall survival between predicted responders and progressors,[1]; RASGRP1 alone,56 days
same,median overall survival of predicted responders versus patients predicted to be resistant,"[1]; two-gene classifier, relapsed or refractory AML",approximately 3 fold
same,median overall survival of the responders,[2]; [3],386 days
same,median overall survival of those with progressive disease,[2]; [3],68 days
same,median overall survival of the predicted resistant patients,[2]; [4],82 days
same,median overall survival of those classified as responders,[2]; [4],295 days
same,difference in overall survival between predicted responders and non-responders,"[2]; RASGRP1:APTX top scoring pair, training set, newly diagnosed AML",357 days
